Earlier results, collected in US20260166131A1, “METHOD FOR PROMOTING PATHOLOGICAL TDP-43 PROTEIN DEGRADATION, AND DRUG” (TALENGEN INTERNATIONAL LIMITED, priority 2022, published 2026).
Several values for one entry are separate records, joined by “and”; a condition that tells them apart may be missing. Equal values may be shown once. Read-outs that look alike come from different tables or passages of the source.

Tested on: ALS patients
Settings: for ALSFRS-R score before dosing: literature
[1] = Edaravone 6 months, intravenous injection
[2] = Riluzole 6 months, taking orally

SMILES	ALSFRS-R score after dosing [1]	ALSFRS-R scoring change [1]	ALSFRS-R score before dosing (Edaravone)	ALSFRS-R score after dosing [2]	ALSFRS-R scoring change [2]	ALSFRS-R score before dosing (Riluzole)
CC1=NN(c2ccccc2)C(=O)C1 [Edaravone]	36.89	−5.01±0.64 points and −5.01 points	41.9			
Nc1nc2ccc(OC(F)(F)F)cc2s1 [Riluzole]				33.2	−7.0+7.1 points and −7.0 points	40.2
